Measurements as given in patent US12383535B2, “Hydrogen peroxide-responsive KEAP1-NRF2 ppi inhibitor prodrug, and preparation method therefor” (CHINA PHARMACEUTICAL UNIVERSITY, priority 2019, dated 2025).

Legend:
[1] = Stability in liver microsomes (rat); type: in vitro ADME
Protocol: (§1) (3) Stability in microsomes. Isolated liver microsomes (from CD-1 male rats and human males) were used to evaluate the stability of the compound in microsomes in vitro. Ketanserin was used as a reference compound. A liver microsome solution (20 mg/mL) was added to a microcentrifuge tube containing PBS at 37° C. and the mixture was shaken for 10 min prior to assay. Then a DMSO solution (0.5 mM) containing the test compound was added. At 0 min, pre-cooled acetonitrile was added followed by an NADPH stock solution (6 mM). The plates were pre-incubated at 37° C. for 5 min. The timer started upon the addition of the NADPH stock solution (6 mM) to the plates. At 5 min, 15 min, 30 min and 45 min, pre-cooled acetonitrile was added to the wells of the respective plates to stop the reactions. After the reaction was quenched, the plates were shaken on a shaker for 10 min and then centrifuged at 5000 rpm for 15 min. The supernatant from each well was transferred to a 96-well sample plate containing ultrapure water for LC-MS/MS analysis.

[2] = system: Nrf2-ARE in RAW264.7 cells; test: ARE inductivity under LPS stimulation; type: cell-based, mouse
[3] = Stability in liver microsomes (human); type: in vitro ADME
Protocol: as §1

RAW264.7 cells = test: IL-1β, IL-6, TNF-α and NO assays in cell culture supernatant; type: cell-based, mouse
Protocol: IL-1β (IL-1β (m) ELISA kit, EK0394, Boster), IL-18 (IL-18 (m) ELISA kit, EMC011, NeoBioscience), IL-6 (IL-6 (m) ELISA kit EK0411, Boster), TNF-α (TNF-α (m) ELISA kit, EK0527, Boster) and NO (nitrate/nitrite assay kit, S0023, Beyotime, China) were tested using commercially available kits according to the manufacturer's instructions.
Then, several inflammatory mediators closely related to ROS, including IL-1β, IL-6, TNF-α and NO, were further evaluated.

[4] = Aqueous solubility (pSOL); type: physicochemical
Protocol: Through Avdeef-Bucher potentiometric titration, pKa and partition coefficients (log D, pH 7.4) were determined on a Gemini Profiler instrument (pION) according to the method of Avdeef and Tsinman. pH measurements were used to determine the intrinsic solubility.
Potential solubility data were obtained with a pSOL model 3 instrument (pION INC, Cambridge, Massachusetts, USA). Cell membrane permeability was determined on a PAMPA Explorer instrument (pION).

[5] = pH stability in PBS buffers; type: physicochemical; details: PBS solutions, pH 4-10
Protocol: (1) pH stability. PBS buffers with different pH values (pH 4-10) were prepared from a 0.1 M HCl solution and a 0.1 M NaOH solution. The prodrug pro2 (20 μM) was incubated in triplicate together with the PBS buffers of different pH at 37° C. After 24 h of incubation, the solutions were filtered and injected for direct sample analysis by HPLC, and the peak areas were recorded to calculate the percentage of compound.

[6] = Stability in artificial gastric and intestinal fluids (SGF, SIF); type: physicochemical; details: after 8 h
Protocol: (4) Stability in artificial gastric and intestinal fluids. Artificial gastric and intestinal fluids were purchased from commercial suppliers. Samples of prodrug (20 μM) were incubated in triplicate with artificial gastric or intestinal fluids at 37° C. for different periods of time. The enzyme protein was precipitated by adding methanol, and the samples were vortexed and then centrifuged at 5000 rpm for 5 min. The supernatants of the samples were analyzed by HPLC and the peak areas were recorded. All chromatographic conditions were as described above.

[7] = system: IL-1β and IL-6 protein in RAW264.7 cells; test: Western blot of IL-1β and IL-6 protein levels; type: cell-based, mouse; details: same concentration
Protocol: (§2) Anti-Nrf2 (ab62352) and anti-IL-1β (ab45692) antibodies were purchased from Abcam Technology (England). Anti-HO-1 (SC-136960) and anti-NQO1 (SC-271116) antibodies were purchased from Santa Cruz Biotechnology (California, USA). Anti-β-Actin (60008-1-Ig) and anti-GCLM (14241-1-AP) antibodies were purchased from Proteintech Group (USA). Cell sampling and western blot were performed as previously reported (M.-C. Lu, J.-A. Ji, Y.-L. Jiang, Z.-Y. Chen, Z.-W. Yuan, Q.-D. You, Z.-Y. Jiang, An inhibitor of the Keap1-Nrf2 protein-protein interaction protects NCM460 colonic cells and alleviates experimental colitis, Sci. Rep., 6 (2016) 26585).

[8] = system: Nrf2 and downstream antioxidant enzyme in RAW264.7 cells; test: Western blot of Nrf2 targeting proteins; type: cell-based, mouse; details: LPS, same concentration
Protocol: as §2
To determine the effect of pro2 on Nrf2-ARE-driven gene transcription, mRNA levels of Nrf2 and three downstream genes, HO-1, NQO1 and GCLM, were examined ((A) of FIG. 4 to (D) of FIG. 4). […] The protein levels of the above genes were determined by western blot.

[9] = Drug release rate by HPLC (H2O2 activation of prodrug); type: physicochemical
Protocol: The target compound was dissolved in DMSO to give a 10 mM stock solution, which was then stored at −20° C. The final concentration was brought to 50 μM by adding the target compound (10 mM) to phosphate buffered saline (PBS) (10 mM, pH 7.4), and H2O2 was added. The solution was well vortexed, and then incubated at 37° C. Samples were taken at appropriate time intervals and analyzed by HPLC directly after injection, and the peak areas were recorded to calculate the percentage of the compound. The procedure was repeated three times. The following Agilent 1260 HPLC and DAD detectors were used: Agilent C18 column (4.6×150 mm, 3.5 μm); mobile phase: 70% methanol; flow rate: 0.5 mL/min. A standard curve of the compound was plotted against concentration.
After treatment with 10 mM H2O2, the prodrug pro2 was activated with prolonged incubation time and the active parent compound 2 was completely released within 3 h (HPLC-determined conversion >98%, (B) of FIG. 1 and (C) of FIG. 1).

[10] = system: IL-1β and IL-6 mRNA in RAW264.7 cells; test: Real-time quantitative PCR of IL-1β and IL-6; type: cell-based, mouse; details: 20 ng/mL LPS 8 h

COc1ccc(S(=O)(=O)Nc2ccc(N(CC(=O)N3CCSC3=O)S(=O)(=O)c3ccc(OC)cc3)c3ccccc23)cc1 [pro2]
stability in co-incubation with rat liver microsomes [1]: very stable | EC50 ([2]; Mus musculus, RAW264.7, under LPS stimulation, read-out: EC50 of ARE inductivity): 320 nM | inductivity of Nrf2-ARE at different concentrations of LPS ([2]; RAW264.7 cells stimulated with LPS prior to administration, compound 200 nM): LPS concentration-dependent increase | stability in co-incubation with human liver microsomes [3]: very stable | production of IL-1β, IL-6 and TNF-α in supernatant (RAW264.7 cells; LPS-treated RAW264.7 cell culture): significant advantages in inhibiting production | EC50 (RAW264.7 cells; Mus musculus, LPS-stimulated RAW264.7 cells, read-out: EC50 for reduction of extracellular NO concentration): 120 nM | Aqueous solubility at pH 7.4 [4]: 879.6 μg/mL | hydrolytic stability in PBS [5]: hydrolytically stable | remaining in simulated gastric fluid (SGF) ([6]; SGF): > 50% | remaining in simulated intestinal fluid (SIF) ([6]; SIF): > 50% | LPS-induced IL-1β and IL-6 protein expression [7]: almost completely inhibited | protein levels of Nrf2 and downstream antioxidant enzyme [8]: significantly increased levels of Nrf2 and downstream antioxidant enzyme | time to complete release of the active parent compound 2 ([9]; 10 mM H2O2): ≤ 3 h | HPLC-determined conversion ([9]; 10 mM H2O2, within 3 h): > 98% | release of the active parent compound 2 ([9]; H2O2 0.8 mM, 24 h incubation, HPLC): no less than 50% | mRNA transcription of IL-1β and IL-6 [10]: significantly inhibit the induction by pro-inflammatory genes
